In article PMC10776879, “In vitro screening of topical formulation excipients for epithelial toxicity in cancerous and non-cancerous cell lines” (EXCLI Journal, 2023):
Converted amounts (≈) assume the structure as drawn.

Legend:
D24 human melanoma cells [1] = test: MTT cell viability assay; assay type: cell-based; settings: Homo sapiens, 24 h exposure, read-out: IC50 (μg/ml) [Mean, Range] D24, MTT
Method: (§1) Cells were seeded into the 96-well cell culture plates in 100 μl of complete culture medium at the initial density of 2x10^4 (cells/ml). Cells were incubated under 5 % CO2 at 37 °C for 24 hours for adhering to the wells and medium was then replaced with 100 μl of fresh medium containing excipient solution at the required final concentration. Each concentration was tested in minimum of 5 replicates and control cells were exposed to the culture medium only.
(§2) After cell incubation for 24 h, the excipient-containing medium was removed, and 100 μl of MTT in PBS (5 mg/ml) diluted 1:10 in medium was then added in the dark. Plates were further incubated for 2-3 h, after which time the medium was removed and the purple formazan product was dissolved by adding 200 μl of DMSO to each well. Plates were then placed in a shaker for 5 min at room temperature and the absorbance of the resulting solutions was measured at 570 nm using a microplate reader (Multiskan™ FC Microplate Photometer). The effect of each treatment was calculated as the percentage of tetrazolium salt reduction by viable cells against the negative control (cells treated with culture medium only).
(§3) To assess the excipients' cytotoxicity, the dose-response effect of each excipient was measured against the cell lines. The cytotoxicity value for each concentration of the excipients was expressed as percentage of viability against the untreated control wells (the optical density of untreated cells was set at 100 % viability) to construct dose-response curves.
(§4) All IC50 values were expressed as µg/ml. The percentage viability was calculated as follows: […]

[2] = test system: HaCaT human keratinocytes; test: MTT cell viability assay; assay type: cell-based; settings: Homo sapiens, 24 h exposure, read-out: IC50 (μg/ml) [Mean, Range] HaCaT, MTT
Method: as §1, §2, §3, §4

[3] = test system: WM1366 human melanoma cells; test: MTT cell viability assay; assay type: cell-based; settings: Homo sapiens, 24 h exposure, read-out: IC50 (μg/ml) [Mean, Range] WM1366, MTT
Method: as §1, §2, §3, §4

[4] = test system: WM164 human melanoma cells; test: MTT cell viability assay; assay type: cell-based; settings: Homo sapiens, 24 h exposure, read-out: IC50 (μg/ml) [Mean, Range] WM164, MTT
Method: as §1, §2, §3, §4

[5] = test system: primary skin fibroblasts (FB); test: MTT cell viability assay; assay type: cell-based, human; settings: Homo sapiens, Skin fibroblast, 24 h exposure, read-out: IC50 (μg/ml) [Mean, Range] FB, MTT
Method: as §1, §2, §3, §4

D24 human melanoma cells [6] = test: Crystal violet (CV) cell viability assay; assay type: cell-based; settings: Homo sapiens, 24 h exposure, read-out: IC50 (μg/ml) [Mean, Range] D24, CV
Method: (§5) Cells were seeded into the 96-well cell culture plates in 100 μl of complete culture medium at the initial density of 2x10^4 (cells/ml). Cells were incubated under 5 % CO2 at 37 °C for 24 hours for adhering to the wells and medium was then replaced with 100 μl of fresh medium containing excipient solution at the required final concentration. Each concentration was tested in minimum of 5 replicates and control cells were exposed to the culture medium only. Fixed cells were stained with crystal violet dye solution to screen cell viability under treatment conditions. Cells are fixed by 4 % (v/v) paraformaldehyde in PBS for 10 minutes. Crystal violet assay of 0.05 % (v/v) is prepared by 1:4 dilution of the crystal violet stock solution (v/v) in 4 % (v/v) paraformaldehyde. The fixed cells were washed twice with PBS and covered with 250 µl crystal violet working solution. The plates were placed on a bench rocker with medium frequency (20 oscillations per minute) at room temperature for 20 minutes. The plates were emptied and washed under indirect stream of tap water for three times and inverted on filter paper. The plates were taped gently on the paper to remove any remaining liquid and air dried with no lid for minimum of 2 hr at room temperature. After the plates were photographed, blue dye was dissolved in DMSO and the optical density of each well was measured at 570 nm (OD570) with a plate reader (Multiskan™ FC Microplate Photometer). The effect of each treatment was calculated as the percentage of crystal viable staining of surviving attached cells, against the negative control (cells treated with culture medium only). To assess the excipients' cytotoxicity, the dose-response effect of each excipient was measured against the cell lines. The cytotoxicity value for each concentration of the excipients was expressed as percentage of viability against the untreated control wells (the optical density of untreated cells was set at 100 % viability) to construct dose-response curves. […] All IC50 values were expressed as µg/ml. The percentage viability was calculated as follows: […]

[7] = test system: HaCaT human keratinocytes; test: Crystal violet (CV) cell viability assay; assay type: cell-based; settings: Homo sapiens, 24 h exposure, read-out: IC50 (μg/ml) [Mean, Range] HaCaT, CV
Method: as §5

[8] = test system: WM1366 human melanoma cells; test: Crystal violet (CV) cell viability assay; assay type: cell-based; settings: Homo sapiens, 24 h exposure, read-out: IC50 (μg/ml) [Mean, Range] WM1366, CV
Method: as §5

[9] = test system: WM164 human melanoma cells; test: Crystal violet (CV) cell viability assay; assay type: cell-based; settings: Homo sapiens, 24 h exposure, read-out: IC50 (μg/ml) [Mean, Range] WM164, CV
Method: as §5

[10] = test system: primary skin fibroblasts (FB); test: Crystal violet (CV) cell viability assay; assay type: cell-based, human; settings: Homo sapiens, Skin fibroblast, 24 h exposure, read-out: IC50 (μg/ml) [Mean, Range] FB, CV
Method: as §5

D24 human melanoma cells [11] = test: Trypan blue (TB) exclusion assay, membrane integrity; assay type: cell-based; settings: 24 h exposure, read-out: IC50 (μg/ml) D24, TB
Method: (§6) The dye exclusion test is routinely applied in laboratories to assess the number of live cells present in a cell suspension. […] In this assay a cell suspension is mixed with dye and then visualized to distinguish the cells that take up dye from the ones that exclude it. Viable cells will be seen as a clear cytoplasm whereas a dead cell will appear with a blue cytoplasm (Strober, 2001[86]). After cell incubation for 24 h, the excipient-containing medium was removed, and cells were trypsinized using trypsin-EDTA to obtain cell suspension. 20 µl of trypan blue dye was mixed thoroughly with 20 µl cell suspension by pipetting ups and downs and loaded into the cell counting slide. Cell numbers were detected by the automated cell counting machine. To find the total number of viable cells in one ml of aliquot, the number of viable cells was multiplied by 2 (the dilution factor for trypan blue). Viable cell percentage was calculated as follows: […]

[12] = test system: HaCaT human keratinocytes; test: as above; assay type: cell-based; settings: 24 h exposure, read-out: IC50 (μg/ml) HaCaT, TB
Method: as §6

[13] = test system: WM1366 human melanoma cells; test: as above; assay type: cell-based; settings: 24 h exposure, read-out: IC50 (μg/ml) WM1366, TB
Method: as §6

[14] = test system: WM164 human melanoma cells; test: as above; assay type: cell-based; settings: 24 h exposure, read-out: IC50 (μg/ml) WM164, TB
Method: as §6

[15] = test system: primary skin fibroblasts (FB); test: as above; assay type: cell-based; settings: Homo sapiens, Skin fibroblast, 24 h exposure, read-out: IC50 (μg/ml) FB, TB
Method: as §6

D24 human melanoma cells [16] = test: Reactive Oxygen Species evaluation with dihydrorhodamine 123; assay type: cell-based; settings: greatest applied concentration, 24 h
Method: (§7) The oxidant-sensitive dye, dihydrorhodamine 123 (DHR), was used to detect intracellular ROS level. Cells were plated in the flat bottom 96-well plates to sub confluent (60-70 %) then the medium was removed and replaced with the pre-warmed treatment solutions (medium containing different concentration of the excipients). After 24 hours incubation with treatment solutions, medium was removed and replaced with the 100 μl of pre-warmed dying buffer (Hank's balanced salt solution (HBSS) containing 12 µM DHR dye). Cells were incubated for 30 minutes at 37 °C in a humidified 5 % CO2 atmosphere in dark. The cellular fluorescence generated by the DHR oxidation was measured at 485 nm (OD 485) using a microplate reader (Multiskan™ FC Microplate Photometer). Hydrogen peroxide (H2O2) treatment (800, 400, 200, and 100 µM)/ (27, 13.5, 6.75, 3.4 µg/ml) was used as positive control and dying buffer with no cells as blank control. Data points were recorded every 10 minutes for 60 minutes and exported for analysis by Excel software. The ROS level is calculated as the difference between (Ftest/ Fcontrol) and expressed as percentages of the control value using this formulation: […]
(§8) where Ftest and Fcontrol are the fluorescence intensities of the cells exposed to the treatments and the cells with only medium, respectively. Fluorescence intensity of the blank wells were measured at every measurement time points and recorded to compare with the control wells.

[17] = test system: HaCaT human keratinocytes; test: as above; assay type: cell-based; settings: greatest applied concentration, 24 h
Method: as §7, §8

[18] = test system: WM1366 human melanoma cells; test: as above; assay type: cell-based; settings: greatest applied concentration, 24 h
Method: as §7, §8

[19] = test system: WM164 human melanoma cells; test: as above; assay type: cell-based; settings: greatest applied concentration, 24 h
Method: as §7, §8

[20] = test system: primary skin fibroblasts (FB); test: as above; assay type: cell-based, human; settings: greatest applied concentration, 24 h
Method: as §7, with “Hydrogen peroxide (H2O2) treatment (800, 400, 200, and 100 µM)/ (27, 13.5, 6.75, 3.4 µg/ml) was used as positive control and dying buffer with no cells as blank control.” left out
as §8

[21] = test system: human cell lines (WM164, WM1366, D24, HaCaT, FB); test: MTT and CV cytotoxicity, statements over all tested cell lines; assay type: cell-based
Method: as §1, §2
Fixed cells were stained with crystal violet dye solution to screen cell viability under treatment conditions. Cells are fixed by 4 % (v/v) paraformaldehyde in PBS for 10 minutes. Crystal violet assay of 0.05 % (v/v) is prepared by 1:4 dilution of the crystal violet stock solution (v/v) in 4 % (v/v) paraformaldehyde. The fixed cells were washed twice with PBS and covered with 250 µl crystal violet working solution. The plates were placed on a bench rocker with medium frequency (20 oscillations per minute) at room temperature for 20 minutes. The plates were emptied and washed under indirect stream of tap water for three times and inverted on filter paper. The plates were taped gently on the paper to remove any remaining liquid and air dried with no lid for minimum of 2 hr at room temperature. After the plates were photographed, blue dye was dissolved in DMSO and the optical density of each well was measured at 570 nm (OD570) with a plate reader (Multiskan™ FC Microplate Photometer). The effect of each treatment was calculated as the percentage of crystal viable staining of surviving attached cells, against the negative control (cells treated with culture medium only).
as §3
The cytotoxicity of the excipients was expressed in terms of an IC50 values (concentration causing 50 % death of the cell population) (Goldberg and Frazier, 1989[37]). […] All IC50 values were expressed as µg/ml. The percentage viability was calculated as follows: […]

[22] = test system: human cervical cancer (HeLa) cells; set-up: method as in Ujhelyi et al., 2012[89], 2015[90]; settings: HeLa cell line; ref Ujhelyi et al., 2012[89], 2015[90]; cited from earlier work
[23] = Table 1, physicochemical information of the excipients, source not given; cited from earlier work

CCOCCOCCO [Transcutol®, diethylene glycol monoethyl ether]
IC50 (D24 human melanoma cells [1]): 4.88 µg/mL (≈ 36.4 µM) | IC50 [2]: 3.32 µg/mL (≈ 24.7 µM) | IC50 [3]: 3.49 µg/mL (≈ 26 µM) | IC50 [4]: 2.12 µg/mL (≈ 15.8 µM) | IC50 [5]: 5.54 µg/mL (≈ 41.3 µM) | IC50 (D24 human melanoma cells [6]): 5.01 µg/mL (≈ 37.3 µM) | IC50 [7]: 2.91 µg/mL (≈ 21.7 µM) | IC50 [8]: 3.55 µg/mL (≈ 26.5 µM) | IC50 [9]: 2.03 µg/mL (≈ 15.1 µM) | IC50 [10]: 5.97 µg/mL (≈ 44.5 µM) | IC50 (D24 human melanoma cells [11]): 21.6 µg/mL (≈ 161 µM) | IC50 [12]: 6.57 µg/mL (≈ 49 µM) | IC50 [13]: 13.7 µg/mL (≈ 102 µM) | IC50 [14]: 14.6 µg/mL (≈ 108 µM) | IC50 [15]: 7.08 µg/mL (≈ 52.8 µM) | ROS production increase vs untreated control (D24 human melanoma cells [16]): 24.9% | ROS production increase vs untreated control [17]: 29.4% | ROS production increase vs untreated control [18]: 18.1% | ROS production increase vs untreated control [19]: 22.5% | ROS production increase vs untreated control [20]: 4.3% | IC50 ([21]; Homo sapiens, over the tested cell lines, this study, read-out: IC50): 2 to 5.5 µg/mL (≈ 14.9 to 41 µM) | Irritancy ranking ([21]; rank by MTT and CV IC50 over all cell lines, 1 = most cytotoxic): 4 | IC50, MTT endpoint [22]: 34 µg/mL (≈ 253 µM) | HLB [23]: 4
